Non-standard residues stand in square brackets, D forms with d. No end group written: not given here.
system: rats; test: Change in blood glucose level in rats following intravenous injection of peptides; format: in vivo, rat; settings: i.v., peptide 0.5 μmol/100 g, control decrease 1.05
Description: (i) Effect on basal blood glucose levels
Values are changes (means ±SEM) of blood glucose from the basal level (4.0-4.4 mmol glucose/l) at time 0. Differences between the control and test groups were statistically evaluated according to Student's t-test. N.S. indicates 2P>0.05.

“Pep (6-15): α-form synthetic peptide equivalent to hGH residues 6-15 (LSRLFDNAML; Somatotropin; UniProt P01241 32-41, looked up, fragment)” showed a Difference from control means of 0.21 mmol/L.

same assay, conditions: intravenous injection of peptide

With “Pep (6-15): α-form synthetic peptide equivalent to hGH residues 6-15 (LSRLFDNAML; Somatotropin; UniProt P01241 32-41, looked up, fragment)” the “Hypoglycaemic effect / activity in words” value was “active only in the β imide form”.

same assay, conditions: intravenous injection, peptide 0.5 μmol/100 g, basal level 4.0-4.4 mmol glucose/l at time 0

In the case of “Pep (6-15): α-form synthetic peptide equivalent to hGH residues 6-15 (LSRLFDNAML; Somatotropin; UniProt P01241 32-41, looked up, fragment)”, the “Decrease in blood glucose from basal levels” value is reported as 1.26 mmol glucose/l.

system: cultured muscle cells (L6 rat skeletal muscle cell line); test: Cultured cell assay for stimulation of glucose uptake; format: cell-based; settings: peptide 10 μg/ml
Description: (§1) In these assays collagenase-dispersed rat adipocytes, cultured muscle cells (L6 rat skeletal muscle cell line) and hemidiaphragm preparations were employed.
(§2) The effect of the β imide form peptides on glucose metabolism is further shown by their ability to stimulate glucose uptake and glycogen synthesis by cultured muscle cells and isolated rat hemidiaphragms.

In order of falling “Rate of Increase from Basal (glucose uptake)” value:
1. LSRVFDNA [Pep P086]  4.9 μmol glucose/hour
2. CYLSRLFDNA [Pep P168]  4.0 μmol glucose/hour
3. LSRLFDNA [Pep P051, b240 implies β imide form]  3.3 μmol glucose/hour
4. LSRL[dF]DNA [Pep P057]  2.0 μmol glucose/hour
5. CYLSRLFDNA [Pep P202]  1.9 μmol glucose/hour
6. LSRLFDNAG [Pep P063]  1.9 μmol glucose/hour
7. SRLFDNA [Pep P015, synthetic peptide; b240 implies β imide form]  1.5 μmol glucose/hour

system: isolated rat hemidiaphragms; test: Isolated muscle assay for stimulation of glycogen synthesis; format: cell-based; settings: peptide 100 μg/ml
Description: as §1, §2

In order of rising “Rate of Increase from Basal (glycogen synthesis)” value:
1. LSRLHDNA [Pep P078]  0.11 μmol glycogen/g tissue/h
2. LSKLFDNA [Pep P090]  0.16 μmol glycogen/g tissue/h
3. CYLSRLFDNN [Pep P197]  0.17 μmol glycogen/g tissue/h
4. LSRLFDQA [Pep P076]  0.30 μmol glycogen/g tissue/h
5. LSRIFDNA [Pep P087]  0.36 μmol glycogen/g tissue/h
6. CYLSRLFDNA [Pep P202]  0.44 μmol glycogen/g tissue/h
7. LSRLFDNA [Pep P051, b240 implies β imide form]  0.74 μmol glycogen/g tissue/h

Source: patent US6048840A, “Hypoglycaemic peptides” (Monash University, priority 1987, dated 2000)
